Bridge positions count the residues as written; N and C are the ends. Square brackets hold non-standard residues; d marks the D form. Peptide text beside a SMILES is read from it. hArg = N=C(N)NCCCC[C@H](N)C(=O)O; Mpa = O=C(O)CCS

This is an account of results in patent publication US7358091B2, “Device and methods for identifying and treating aspirin non-responsive patients” (Portola Pharmaceuticals, Inc., priority 2004, dated 2008).

In data set [1] the test system is preformed thrombi on collagen coated surface. Put plainly: Real time thrombosis perfusion chamber assay, destabilization of preformed thrombi. It is filed as cell-based. Conditions: for effect on preformed thrombi, aspirin background: aspirinated blood over preformed aspirinated thrombi; for mean slope after first perfusion (mSAFP): untreated blood 210 seconds at 1500/sec, then blood treated with agent, eptifibatide 2.4 μM, Ifetroban 0.3 μM; for mean slope after first perfusion (mSAFP) / mean slope after first perfusion (mSAFP), aspirin background: 2-MeSAMP 100 μM; for mean slope after first perfusion (mSAFP), aspirin background: aspirinated blood, aspirin alone = saline control, eptifibatide; for effect on preformed thrombi: untreated blood background, second perfusion with agent. How it is done:
Evaluation of the ability of thromboxane receptor (TP) antagonists to destabilize preformed thrombi was performed as followed in the real time thrombosis perfusion chamber assay (monitoring of fluorescently labeled platelets onto collagen coated surface). Untreated samples of blood were first perfused through the collagen-coated perfusion chamber for 210 seconds at 1500/sec. […] In order to evaluate a possible role for PGD2 in mediating thrombus destabilization, aspirinated blood was perfused in presence of PDG2 over preformed aspirinated thrombi.

In data set [2] the test system is mixed platelet/leukocyte aggregates. Kind of data set: Arachidonic acid-/shear-induced platelet aggregation assay in whole blood. It is filed as cell-based. Conditions: 0.8 mM arachidonic acid, 1700/sec followed by 80/sec. How it is done: FIG. 10 is a schematic representation of the AA/shear-induced thrombotic process utilized in our preliminary study. AA (0.8 mM) is added to citrate-anticoagulated blood (37° C. incubation time=1 minute) then perfused via a silastic tubing to a stenosis (high shear rate, 1700/sec: Hγ) followed by a low shear rate area (80/sec: Lγ). Observation of the mixed platelet/leukocyte aggregates is performed under UV at 10× magnification using a fluorescent microscope.
Platelets are labeled in whole blood with Rhodamine 6G as described above. Following addition of AA, blood will be perfused through 2 successive chambers which generate high (1500/sec) and low (50/sec) shear rates. The high shear rate induces platelet activation and aggregation is created by a sudden decrease in capillary diameter. The low shear rate area allows for the real time evaluation/quantification of the size of the platelet/platelet, platelet/leukocyte aggregates that will pass and/or adhere via the Simple PCI software or similar software capable of evaluating the size of the flowing thrombi.
Large mixed platelet/leukocyte aggregates are detectable in the low shear area (observable after less than 30 seconds) when whole blood is treated with 0.8 mM arachidonic acid and perfusion through a small uncoated circular capillary at 1700/sec followed by a larger capillary at 80/sec. […]

In data set [3] the test system is aggregation induced by ADP. Put plainly: Aggregation induced by ADP. It is filed as cell-based. Conditions: 100 μM.
The subject of data set [4] is thrombus formation on type III collagen. Put plainly: Real time collagen-coated perfusion chamber, kinetics of thrombus formation. It is filed as cell-based, human. Conditions: 2.5 μM, PPACK-anticoagulated blood, collagen type III-coated capillary.
Protocol: Phe-Pro-Arg-chloromethylketone (PPACK)-anticoagulated blood is added to a tube containing Rhodamine 6-glucose (Rhodamine 6G) (0.2 mg/ml). Five minutes later, blood is perfused through a rectangular capillary mounted on the stage of an inverted microscope (under ultraviolet (UV) light (Rhodamine filter) platelets appear fluorescent). As the blood flows on the collagen type III-coated capillary chamber, platelets adhere and start building a thrombus. Two frames per second are recorded and analyzed for mean fluorescent intensity for the entire perfusion period. At the end of the perfusion, standard deviation in light intensity is plotted against the time by the Prism software.
After blood collection into either citrate or PPACK (4 ml are needed per perfusion chamber) Rhodamine 6G (0.2 mg/mL) is added to the blood and incubated at 37° C. for 5 minutes. Collagen-coated rectangular glass capillaries (Vitrocom) are mounted on the stage of a fluorescent microscope and illuminated under light, UV, or both. […] Platelet collagen interactions and thrombus formation are recorded in real time with the Simple PCI software. The mean fluorescence intensity parallels the kinetics of the thrombotic process, because all platelets are labeled by rhodamine 6G. The kinetics of the thrombotic process is recorded at 2 frames per second for 5 minutes and plotted versus time.
In another data set the test system is platelet aggregation. Put plainly: Ultegra RPFA-ASA assay in whole blood. It counts as cell-based, human. Conditions: aspirin 275 μM added to the blood in vitro; all 5 blood donors; compared with 50% inhibition of P2Y12.
The test system of data set [5] is platelet aggregation in PRP. Kind of data set: Arachidonic acid-induced platelet aggregation in PRP. It counts as cell-based, human. Conditions: 325 mg/d ASA for 3 days, compared with baseline, all 5 donors. How it is done: (§1) The effects of aspirin (normal volunteers were drug free for 2 weeks prior to 325 mg/d ASA for 3 days) and 50% inhibition of P2Y12 on arachidonic acid-induced platelet aggregation in PRP, TxB2 generation, PFA-100 with both Collagen/Epinephrine (CEpi) and Collagen/ADP (CADP) cartridges were evaluated. Arachidonic acid-induced platelet aggregation and TxB2 generation were abolished by aspirin treatment compared with baseline for all 5 donors. […] All donors gave the expected prolongation of the CEpi cartridge after aspirin treatment. In addition, 2 out of 5 donors presented unusual phenotypes (FIG. 6). In donor 1, aspirin increased the CADP closure time, whereas in donor 2, P2Y12 antagonism increased closure time of the CEpi cartridge above the limit defined by the manufacturer for aspirin effect.

For another data set, the system named is TxB2 generation. Put plainly: TxB2 generation. It is filed as cell-based, human. Conditions: 325 mg/d ASA for 3 days, compared with baseline, all 5 donors. As to the method: as §1
Data set [6] deals with platelet function under high shear stress. Put plainly: PFA-100 closure time, CEpi and CADP cartridges. It counts as cell-based, human. Conditions: 325 mg/d ASA for 3 days.
Source text: Whole blood was drawn into 3.8% Sodium citrate vacuum tubes and analyzed using the Platelet Function Analyzer (PFA-100). Sample results are based on the platelet function under high shear stress. Platelet adhesion and aggregation are triggered by a biologically active membrane coated with collagen and either epinephrine (EPI) or ADP. Platelets exposed to EPI or ADP under flow conditions are activated on the collagen surface. The time required to full occlusion of an aperture cut in the membrane defines the “closure time” (CT).
as §1

Data set [7] relates to thrombotic deposits on type III collagen. Put plainly: Perfusion chamber assay on type III collagen at 1000/sec, end-point grey level. It is filed as cell-based, human. Conditions: citrate blood, 2 donors before and after aspirin 325 mg/d for 3 days, DMSO-treated and P2Y12 antagonism+epinephrine-treated blood. How it is done: (§2) FIG. 9 is a representation of the thrombotic deposits formed on type III collagen at 1000/sec in the rectangular perfusion chamber in 2 blood donors, before and after aspirin uptake (325 mg/d for 3 days). Anticoagulated blood (citrate 3.8%, 1:9 v of blood) is collected and added into 5 ml tubes containing either DMSO (vehicle control for the P2Y12 antagonist), a direct P2Y12 antagonist at 5 μM (which totally block the receptor), or a direct P2Y12 antagonist at 5 μM in presence of 20 μM Epinephrine. Anticoagulated blood is perfused through a rectangular capillary (0.2×2 mm, Vitrocom) coated with fibrillar type III collagen at 1000/sec for 4 minutes. Thrombotic deposits are then rinsed for 15 seconds with buffer “C”, fixed for 1 minute in phosphate-buffered glutaraldehyde (2.5%), stained for 45 sec in toluidine blue. Picture is taken at 5 mm from the proximal part of the chamber, and measurement of the grey level performed with Prism software.
A perfusion chamber assay on type III collagen (DMSO (vehicle) treated (a), full P2Y12 antagonism (b), full P2Y12 antagonism with epinephrine 20 μM(c)) have been performed before and 3 days after a daily dose of aspirin (325 mg).

Data set [8] has as its system thrombotic process on collagen. Put plainly: Fibrillar type III collagen-coated capillary perfusion chamber at arterial shear rates. It is filed as cell-based, human. As to the method:
In one example of the perfusion chamber assay of the invention, the assay enables the investigator to evaluate thrombotic process under arterial shear rates in less than 15 minutes after blood draw. The simplicity of the perfusion chamber allows for multiple parallel experiments as the thrombogenic surface is deposited inside a regular glass capillary tube. The system is easy to use as only 2 tubings are needed: a proximal tubing to connect the blood sample to the capillary, and a distal tubing which connects the capillary to the pump. A limited amount of blood is required to reconstitute arterial shear rate conditions (4 ml of blood for 1 perfusion chamber). […]
At the end of the perfusion, the capillary is rinsed for 20 sec and fixed with 2.5% phosphate buffered glutaraldehyde for 1 minute. […] An En Face picture located 5 mm downstream of the proximal part of the capillary is taken, and the grey level of each thrombus or platelets located in a window 400 μm long×400 μm wide is measured (Simple PCI software, Compix Inc. Imaging System). Thrombotic deposits were then embedded in Epon, subsequently cross sectioned (at the same location used for measurement of the grey level) and their mean thrombus volume determined. […]

The next data set has as its system patients. Conditions: human, in vivo; cited from earlier work.
Data set [9] relates to P2Y12-deficient mice. The source says: This phenotype is rescued by the injection of epinephrine in vivo (Andre, P. et al., J Clin Invest, 112(3):398-406 (2003)).
The subject of data set [10] is P2Y12-deficient mice. Conditions: injection of epinephrine in vivo; cited from earlier work.
Another data set deals with T1, P2Y12 receptor (Homo sapiens, UniProt Q9H244).
T1 construct: endogenous in cells; host or cells: platelets in citrate-anticoagulated whole blood of blood donors
T1 sequence (Q9H244 whole entry): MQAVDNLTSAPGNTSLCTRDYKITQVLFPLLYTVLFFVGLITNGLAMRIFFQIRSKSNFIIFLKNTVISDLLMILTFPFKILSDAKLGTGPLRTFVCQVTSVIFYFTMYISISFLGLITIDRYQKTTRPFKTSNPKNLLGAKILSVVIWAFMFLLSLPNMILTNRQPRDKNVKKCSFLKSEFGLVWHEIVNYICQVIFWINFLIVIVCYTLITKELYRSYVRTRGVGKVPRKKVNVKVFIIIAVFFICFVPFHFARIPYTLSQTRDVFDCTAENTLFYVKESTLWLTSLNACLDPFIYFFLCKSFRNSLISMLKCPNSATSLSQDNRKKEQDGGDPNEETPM
Put plainly: P2Y12 receptor blockade in vitro in whole blood. It counts as cell-based. Conditions: 5 μM. As to the method: as §2
Most ACS patients eligible for percutaneous coronary intervention (PCI) are under PLAVIX (clopidogrel bisulfate) therapy. […]

For the molecule `CCCCCNC(=O)c1coc([C@H]2[C@@H](Cc3ccccc3CCC(=O)O)[C@@H]3CC[C@H]2O3)n1` [Ifetroban], in [1], the “effect on preformed thrombi, aspirin background” value (“effect … aspirin background” below) is listed as “abolished the destabilization effects” and the “mean slope after first perfusion (mSAFP)” value is given as −2.5±0.6.

As to `CCCCC[C@H](O)/C=C/[C@H]1C(=O)C[C@H](O)[C@@H]1C/C=C\CCCC(=O)O` [PDG2, PGD2], the “effect … aspirin background” value in data set [1] is listed as “significant, spontaneous reversal of thrombosis”.

Take `CC(C)(C)N/C(=N\C#N)Nc1cccc(/C(=C\CCCC(=O)O)c2cccnc2)c1` [Terbogrel]: the “large mixed platelet/leukocyte aggregates in the low shear area” value in data set [2] is “prevented”.

For the molecule `CSc1nc(N)c2ncn([C@@H]3O[C@H](COP(=O)(O)O)[C@@H](O)[C@H]3O)c2n1` [2-MeSAMP], in data set [1], the “effect … aspirin background” value is “sudden dethrombosis”; the “mean slope after first perfusion (mSAFP), aspirin background” value (“mean slope … aspirin background” for short) was −4.1±0.7; the “mean slope after first perfusion (mSAFP)” value was −1.8±0.2; the “effect on preformed thrombi” value was “marked dethrombosis”. Further, in [3], the “aggregation induced by ADP” value was “totally blocks”.

Turning to `N=C(N)NCCCC[C@@H]1NC(=O)CCSSC[C@@H](C(N)=O)NC(=O)[C@@H]2CCCN2C(=O)[C@H](Cc2c[nH]c3ccccc23)NC(=O)[C@H](CC(=O)O)NC(=O)CNC1=O` [eptifibatide] ([Mpa][hArg]GDWPC-NH2; disulfide 1-7), the “thrombotic profile (real time kinetics of thrombus formation)” value in [4] is given as “flat curve”. Further, in [1], the “effect … aspirin background” value is listed as “sudden dethrombosis”; the “mean slope … aspirin background” value is given as −2.6±0.9; the “mean slope after first perfusion (mSAFP)” value came out at 0.17±0.22; the “effect on preformed thrombi” value is “no apparent destabilization”.

Turning to `CC(=O)Oc1ccccc1C(=O)O` [aspirin], in the data set on platelet aggregation, the “aspirin effects in RPFA-ASA (Aspirin Reaction Units)” value was “smaller than that obtained with 50% inhibition of P2Y12”. In [5], the “arachidonic acid-induced platelet aggregation in PRP” value is on record as “abolished”. Moreover, the TxB2 generation entry in the data set on TxB2 generation is “abolished”. For the same molecule, the “PFA-100 closure time, CEpi cartridge” value in data set [6] (all donors) is “prolongation”. For the same molecule, the “PFA-100 closure time, CADP cartridge” value in [6] (donor 1 (unusual phenotype)) is given as “increased”. For the same molecule, the “thrombotic deposits formed on type III collagen (grey level)” value in data set [7] is on record as “aspirin effect is observed”. In addition, the “large mixed platelet/leukocyte aggregates in the low shear area” value in data set [2] was “prevented”. Also, in data set [1], the “effect … aspirin background” value was “slow and moderate destabilization”; the “mean slope … aspirin background” value was −1.07±0.3. Besides, the “antithrombotic effects on collagen in combination with P2Y12 inhibitors” value in data set [8] is “synergize”. Further, in the data set on patients, the “patients with aspirin-induced asthma” value is listed as at most 20%, the “reduction of post-acute myocardial infarction (AMI) cardiovascular events” value is listed as 25-30% and the “reduction of the incidence of AMI in the acute phase of unstable angina” value was “up to 25%”.

On to `CNC[C@H](O)c1ccc(O)c(O)c1` [epinephrine], for which, in the data set with P2Y12-deficient mice [9], the “phenotype of P2Y12-deficient mice in a collagen-coated perfusion chamber” value is recorded as “correct the phenotype”. For the same molecule, the “protection of P2Y12-deficient mice from vascular occlusion after FeCl3 injury” value in the data set with P2Y12-deficient mice [10] was “rescued”.

With `CNc1cc2ccn(-c3ccc(NC(=O)NS(=O)(=O)c4ccc(Cl)s4)cc3)c(=O)c2cc1F` [5-chloro-N-[({4-[7-fluoro-6-(methylamino)-1-oxoisoquinolin-2(1H)-yl]phenyl}amino)carbonyl]thiophene-2-sulfonamide], at P2Y12 receptor, the “blockade of the P2Y12 receptor” value was “full blockade”.
